Results from paper PMC12257413, “Discovery of a Novel sp^3‑Rich M1 Positive Allosteric Modulators (PAMs) Chemotype via Scaffold Hopping” (ACS Medicinal Chemistry Letters, 2025).

Target: T1, rat muscarinic receptor subtype 1 (M1) (Rattus norvegicus, UniProt P08482)
T1 construct: expressed in transfected cells
T1 sequence (P08482 1-460): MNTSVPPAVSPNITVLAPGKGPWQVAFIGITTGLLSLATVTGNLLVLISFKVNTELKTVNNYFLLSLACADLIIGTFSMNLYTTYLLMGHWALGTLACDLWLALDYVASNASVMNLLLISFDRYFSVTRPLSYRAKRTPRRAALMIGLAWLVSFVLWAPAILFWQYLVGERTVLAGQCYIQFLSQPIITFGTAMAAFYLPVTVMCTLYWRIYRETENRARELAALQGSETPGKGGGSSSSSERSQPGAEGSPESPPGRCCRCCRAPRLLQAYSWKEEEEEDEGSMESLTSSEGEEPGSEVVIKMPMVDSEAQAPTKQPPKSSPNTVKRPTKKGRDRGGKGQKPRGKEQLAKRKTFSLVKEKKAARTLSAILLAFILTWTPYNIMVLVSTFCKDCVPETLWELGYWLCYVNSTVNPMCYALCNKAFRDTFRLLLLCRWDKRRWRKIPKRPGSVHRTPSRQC
Experiment: Calcium mobilization assay in rM1-CHO cells, PAM activity with EC20 acetylcholine
Assay type: cell-based
Details: for EC50: read-out: rM1 pEC50 ± SEM (converted)
Procedure: page 2: Procedures for Biological Experiments Calcium mobilization assays: To measure the functional activity of positive allosteric modulator (PAM) compounds in a cellular assay, human or rat muscarinic receptor subtype 1 (M1) was stably expressed in the Chinese hamster ovary (CHO) cells to evoke an increase in intracellular calcium to an EC20 concentration of acetylcholine (ACh) agonist. The stable M1-CHO cells were cultured in F12 medium containing 10% fetal bovine serum, 20 mM HEPES, 100 units/mL antibiotics/antimycotic, 0.5 mg/ml G418. All reagents used were from Life Technologies (Carlsbad, CA) unless otherwise noted. Briefly, the day before the assay, stable M1-CHO cells (15,000 cells/20 μL/well) were plated in black-walled, clear-bottomed, 384 well plates (Greiner Bio-One, Monroe, NC) in the culture medium without G418, and then incubated overnight at 37 °C in the presence of 5% CO2. The next day, calcium assay buffer (Hank’s balanced salt solution (HBSS), 20 mM HEPES, 2.5 mM Probenecid, 4.16 mM sodium bicarbonate (Sigma-Aldrich, St. Louis, MO) was prepared to dilute […] calcium indicator dye. […] curves in DMSO using the Bravo Liquid Handler (Agilent, Santa Clara, CA), transferred to a 384 well daughter plates using an Echo acoustic liquid handler (Beckman Coulter, Indianapolis, Indiana), and diluted in assay Buffer to a 2X final concentration. The agonist plates were prepared using acetylcholine (ACh, Sigma-Aldrich, St. Louis, MO) concentrations for the EC20 and ECMAX responses by diluting in assay buffer to a 5X final concentration. The 2X dye solution (2.3 µM) was prepared by mixing a 2.3 mM Fluo-4-AM stock in DMSO with 10% (w/v) pluronic acid F- 127 in a 1:1 ratio in assay buffer. Using a microplate washer (BioTek, Winooski, VT), cells were washed with assay buffer for 3 times to remove medium. After the final wash, 20 μL of assay buffer remained in the cell plates. Immediately, 20 μL of the 2X dye solution (final 1.15 µM) was added to each well of the cell plate using a Multidrop Combi dispenser (Thermo Fisher, Waltham, MA). After cells were incubated with the dye solutions for 45 min at 37 °C in the presence of 5% CO2, the dye solutions were removed and replaced with assay buffer using a microplate washer, leaving 20 μL of assay buffer in the cell plate. The compound, agonist, and cell plates were placed inside the Functional Drug Screening System uCell (FDSS uCell, Hamamatsu, Japan) to measure the calcium flux. The triple add protocol was used to measure Ca kinetics; Compound, ACh for EC20, and ACh for ECMAX adds in an order. Briefly, after establishment of a fluorescence baseline S2 page 3: for 2 seconds (excitation, 480 nm; emission, 530 nm), first add occurred by adding 20 µL of test compound to the cells, and the response was measured for 140 seconds. This is followed by second add; 10 µL (5X) of an EC20 concentration of ACh agonist was added to the cells, and the response of the cells was measured for 125 seconds. Immediately, the third add occurred by adding 12 ul assay buffer or 5X of an EC max concentration of ACh and the response of the cells was measured for 90 seconds. Assay buffer was added to the wells that incubated with compounds followed by EC20 concentration of ACh. Agonists containing ECmax concentration of ACh were added to the wells that incubated with DMSO and assay buffer from the 1st and 2nd adds to measure maximum Ca responses (ECmax). Calcium fluorescence was recorded as fold over basal fluorescence and raw data were normalized to the maximal response to ACh agonist. […]

SMILES | rM1 %ACh Max ± SEM [%ACh Max] | EC50 [nM]
Cn1cc(-c2ccc(Cc3cc(C(=O)N[C@H]4CCOC[C@@H]4O)nn3C3CCCC3)cc2)cn1 [17g] | 83 ± 4.1 | 347
Cn1cc(-c2ccc(Cc3cc(C(=O)N[C@H]4CCCC[C@@H]4O)nn3C3CCCC3)cc2)cn1 [17k] | 83 ± 2.8 | 490
